Test results reported in US11672786B2, “Methods of treating diseases associated with repeat instability” (The Hospital for Sick Children, priority 2016, dated 2023).
Values joined by “and” are separate entries in the source; they are usually repeats but may differ in a detail not shown here. Equal values may be shown once.

What was measured:
[1] = system: r(CAG)9; conditions: r(CAG)9 immobilization 524 RU; cited from earlier work
[2] = system: HT1080-non transcribing (CAG)850 cells; assay: small-pool PCR repeat instability, HT1080-non transcribing (CAG)850 cells; format: cell-based, human; conditions: 50 uM NA, 30 days, repeat not transcribed
Method: The construction of the HT1080-(CAG)850 cell model was described previously (Sathasivam et al., 1997, Hum. Genet., 99:692-5). Briefly, HT1080 (ATCC) human fibrosarcoma cells were co-transfected with a plasmid (LC15-R) containing 800-850 (CTG)●(CAG) repeats (Nakatani et al., 2005, Nat. Chem. Biol., 1:39-43) and a plasmid encoding PhiC31 integrase. Transfection was performed with a Nucleofector (Lonza, Basel, Switzerland), and stably transfected clones were selected with puromycin. […] The HT1080-non-transcribing (CAG)850 cell model was established by transfecting a plasmid modified from pLC16 by inserting an additional SV40 polyadenylation signal downstream of the repeats (in addition to the original polyadenylation signals located upstream of the repeats), so that CAG/CTG repeats are floxed by transcription-terminator elements. The AttB-PhiC31 system has been widely used for single copy integration. […] The HT1080 model cells and an HD primary fibroblast cell line, GM09197 (Coriell Biorepository) with a large expanded allele of 180 CAG repeats and a non-expanded allele of 23 repeats (Sathasivam et al., 1997, Hum. Genet., 99:[…]), the HD primary fibroblast cell line, GM02191 (Coreill Biorepository) with an expanded allele of 43 CAG repeats and a non-expanded allele of 19 repeats, were cultured at 37° C. with 5% CO2 in Dulbecco's modified Eagle's medium supplemented with 10% fetal bovine serum and 1% penicillin/streptomycin. Cells were treated with or without continuous exposure to 50-μM NA for 30 days (HT1080 cells) or for 40 days (fibroblast cells). For experiments on non-proliferating cells, HT1080 cells were grown to confluence and then treated for the same period. WST-1 assay was performed according to the manufacturer's instructions (Roche, Basel, Switzerland). All cell lines were tested to be free of Mycoplasma. Three biological replicates were performed for each experiment.
Genomic DNA was extracted from HT1080-(CAG)850 clones and HD primary fibroblasts using the Gentra Puregene Cell Kit (Qiagen, Valencia, Calif.). The expanded (CTG)●(CAG) repeats were sized by small-pool PCR (sp-PCR) followed by Southern blot as described previously (Sathasivam et al., 1997, Hum. Genet., 99:692-5). For HT1080 models, small-pool PCR (spPCR) was performed with the input of 1.4-1.7 genome equivalents. The repeat size difference in the models is, at most, 3000 base-pairs, therefore, being strictly conservative, a bias toward amplifying the shorter allele can be possible, even under optimized PCR conditions described herein. For HD primary fibroblasts, sp-PCR & Southern blots were performed as described previously with slight modifications (Tome et al., 2013, PLoS Genet., 9:e1003280). Briefly, the PCR primers listed in Table 1 were used, and blots were hybridized with a DIG-labeled (CAG)7 locked nucleic acid probe (Nakamori et al. 2009, Neuromuscul. Disord., 19:759-62). At least 50 alleles were analyzed for each of the three experiments (more than 150 alleles for a total study). Repeat analyses are summarized in Table 2, compiled from complete small-pool-PCR datasets for each repetition of each experiment. For the histograms in FIGS. 4D, 4E, 10, 11, 5B, 5D, 5E, 14 and 15B, the Y-axis, “% of repeat population” was calculated by determining the proportion of >50 individual small-pool PCR reactions across the CAG repeat tract, that harbored a certain size of repeat product with a certain length. Cell clones were grown 30 or 40 days with or without NA (see, for example, Sathasivam et al., 1997, Hum. Genet., 99:692-5). Specifically, the histograms of repeat length distributions were from at least two different cell clones. Length distributions were determined as follows: Small-pool PCR followed by Southern blot for analysis of CAG/CTG repeat length.

[3] = system: transcription across the CAG transgene, R6/2 striatum; assay: qRT-PCR of CAG transgene transcription in R6/2 striatum; format: in vivo, mouse; conditions: NA-treated vs. PBS-treated R6/2 striatum
Method: Strand specific RT-PCR (1 weeks). AttB-PhiC31 system have been widely used for single copy integration. Panel B of FIG. 16 was determined by quantitative real-time reverse transcriptase (qRT)-PCR and normalized to U6 RNA, expressed as the ratio of NA-treated vs. PBS-treated R6/2 striatum. Data are indicated as the mean±SD of triplicates.

[4] = single experiments Ex 1-3, cut-off ±25 repeats

naphthyridine-azaquinolone
changes in the SPR intensity on NA binding [1]: 8 RU
% Contraction ([2]; Total): 21.8%
% Expansion ([2]; Total): 12.1%
% Unchanged ([2]; Total): 66.1%
Average Change of Repeat Size ([2]; Total): −55.9 number of repeats
% Unchanged ([2]; single experiments Ex 1-3): 66.7% and 62.5% and 69.1%
% Contraction [2, 4]: 22.2% and 21.4% and 21.8%
% Expansion [2, 4]: 11.1% and 16.1% and 9.1%
effect on transcription across the CAG transgene [3]: does not affect transcription
